The record followed here is patent US10251863B2, “Parasiticidal compositions comprising indole derivatives, methods and uses thereof” (MERIAL, INC., priority 2014, dated 2019).

In one experiment the test system is adult F. hepatica. The experiment in a line: in vitro test on adult F. hepatica (viability scale). The class given is cell-based. The following applies: Fasciola hepatica, read-out: Effective in vitro concentration. The procedure:
Representative compounds of formula (I) were tested in vitro against F. hepatica as follows. Adult F. hepatica (fluke) were collected from infected bovine livers obtained from a local abattoir (Basel, Switzerland). The worms were quickly washed with 0.9% (w/v) NaCl and placed in 6 or 12-well plates (Costar). Culture medium in each well contained RPMI 1640 (Gibco) at 37° C., which was supplemented with antibiotics (50 μg/ml streptomycin and 50 IU/ml penicillin; Gibco) and 80 μg/ml of a haemin solution. The haemin solution was prepared as follows: 5 mg haemin was dissolved in 1 ml of 0.1M aqueous solution of NaOH, and 3.95 ml of PBS (pH=7.4) and 0.05 ml of 1M HCl were added to adjust the pH to 7.1-7.4 (Keiser and Morson, 2008). Cultures were kept at 37° C. in an atmosphere of 5% CO2. To monitor the temporal effects of test compounds in vitro, 3 flukes were incubated for 72 h in the presence of 50 or 100 μg/ml of each test compound. At 24, 48, and 72 h, worms were examined using a dissecting microscope. For the adult worms, a viability scale ranging from 3 (normal movements) to 0 (death; no movement observed for two min using a microscope) was used.
Table 1 lists representative compounds of formula (I) of the present invention and their effective in vitro concentrations against F. hepatica. All compounds were tested in vitro on the adult stage of F. hepatica as described above. Each data point refers to at least two independent experiments having at least three worms per concentration.

Experiment [1] concerns liver fluke newly-excysted juveniles (NEJs). The experiment in a line: fluke motility assay, digital image-based, newly-excysted juveniles (NEJs). The class given is cell-based, Fasciola hepatica. The following applies: for inhibition of motility compared with TCBZ and TCBZ-SO / concentration effective on motility (effective only at): 18 h; for inhibition of motility compared with TCBZ and TCBZ-SO: final concentrations 10 μM-1 nM; for concentration effective on motility (effective only at): tested 10 μM-1 nM. The procedure: Further testing employed a fluke motility assay. Compounds 332, 336 and 351 were screened for activity against liver fluke newly-excysted juveniles (NEJs) in a digital image-based motility assay, based on measurement of the rate of change in worm length (μm/min) during peristaltic motility. Newly excised worms were immediately placed into a solution of drug in RPMI (final concentrations 10 μM-1 nM), alongside untreated and vehicle controls, and triclabendazole/triclabendazole sulfoxide (i.e., TCBZ/TCBZ-SO) at matching concentrations, for a period of 18 h. Each treatment group consisted of 15-20 NEJs. […] Each data point represents mean length change (μm/min) in an individual worm during a five minute recording period. Horizontal lines represent data set means. ****, p<0.0001; ***, p<0.001; **, p<0.01; *, p<0.05.

Where [2] appears, read: adult stage of F. hepatica, incubated up to 72 h, viability scale 3 to 0, at least two independent experiments, at least three worms per concentration.
Setting [3] is: 18 h in drug in RPMI, rate of change in worm length (μm/min).

Read-outs that look alike come from different tables or passages of the source.

On to `FC(F)(F)c1cc2cc(-c3ccc(Cl)cc3)c(Cl)cc2[nH]1` [Compound 343, 6-chloro-5-(4-chlorophenyl)-2-(trifluoromethyl)-1H-indole], for which the minimal effective concentration in the experiment on adult F. hepatica (setting [2]) is below 10 µg/mL.

Turning to `FC(F)(F)c1cc2cc(-c3ccc(Cl)cc3Cl)c(Cl)cc2[nH]1` [Compound 357, 6-Chloro-5-(2,4-dichlorophenyl)-2-(trifluoromethyl)-1H-indole], in the experiment with adult F. hepatica (setting [2]), the minimal effective concentration was below 10 µg/mL.

On to `Cl.FC(F)(F)c1cc2cc(-c3ccncc3)c(Cl)cc2[nH]1` [Compound 354, 6-chloro-5-(pyridin-4-yl)-2-(trifluoromethyl)-1H-indole hydrochloride], for which the minimal effective concentration with adult F. hepatica (setting [2]) was above 2.5 µg/mL.

As to `Cl.FC(F)(F)c1cc2cc(Oc3ccncc3)c(Cl)cc2[nH]1` [Compound 362-0A, 6-chloro-5-(pyridin-4-yloxy)-2-(trifluoromethyl)-1H-indole hydrochloride], in the experiment on adult F. hepatica (setting [2]), the minimal effective concentration is above 2.5 µg/mL.

For `Fc1ccc(-c2cc3cc(C(F)(F)F)[nH]c3cc2Cl)c(Cl)c1` [Compound 356, 6-chloro-5-(2-chloro-4-fluorophenyl)-2-(trifluoromethyl)-1H-indole], the minimal effective concentration in the experiment with adult F. hepatica (setting [2]) is below 10 µg/mL.

Turning to `FC(F)(F)c1cc2cc(-c3ccc(Cl)cc3C(F)(F)F)c(Cl)cc2[nH]1` [Compound 342, 6-chloro-5-[4-chloro-2-(trifluoromethyl)phenyl]-2-(trifluoromethyl)-1H-indole], the minimal effective concentration in the experiment on adult F. hepatica (setting [2]) was below 10 µg/mL.

Consider `FC(F)(F)c1cc2cc(Oc3ccc(Cl)cc3)c(Cl)cc2[nH]1` [Compound 350, 6-chloro-5-(4-chlorophenoxy)-2-(trifluoromethyl)-1H-indole], for which the minimal effective concentration with adult F. hepatica (setting [2]) was at most 10 µg/mL.

Consider `FC(F)(F)c1ccc(-c2cc3cc(C(F)(F)C(F)(F)C(F)(F)F)[nH]c3cc2Cl)c(Cl)c1` [Compound 341, 6-chloro-5-[2-chloro-4-(trifluoromethyl)phenyl]-2-(heptafluoropropyl)-1H-indole], for which the minimal effective concentration in the experiment on adult F. hepatica (setting [2]) was above 10 µg/mL.

Turning to `FC(F)(F)c1cc2cc(Oc3ccccc3Cl)c(Cl)cc2[nH]1` [Compound 351, 6-chloro-5-(2-chlorophenoxy)-2-(trifluoromethyl)-1H-indole], the “inhibition of motility compared with TCBZ and TCBZ-SO” value in experiment [1] is “more potent inhibition of motility than either TCBZ”. Besides, in experiment [1] (setting [3]), the “concentration that completely abolished motility” value is 1 µM. Besides, the minimal effective concentration in the experiment on adult F. hepatica (setting [2]) is below 10 µg/mL.

Regarding `CN(C)Cc1ccccc1-c1cc2cc(C(F)(F)F)[nH]c2cc1Cl.Cl` [Compound 360-0A, ([2-[6-Chloro-2-(trifluoromethyl)-1H-indol-5-yl]phenyl]methyl)dimethylamine hydrochloride], in the experiment on adult F. hepatica (setting [2]), the minimal effective concentration was above 2.5 µg/mL.

Turning to `FC(F)(F)c1ccc(Oc2cc3cc(C(F)(F)F)[nH]c3cc2Cl)cc1` [Compound 352, 6-chloro-2-(trifluoromethyl)-5-[4-(trifluoromethyl)phenoxy]-1H-indole], in the experiment with adult F. hepatica (setting [2]), the minimal effective concentration was above 10 µg/mL.

In the case of `FC(F)(F)c1ccc(-c2cc3cc(C(F)(F)C(F)(F)F)[nH]c3cc2Cl)c(Cl)c1` [Compound 340, 6-chloro-5-[2-chloro-4-(trifluoromethyl)phenyl]-2-(pentafluoroethyl)-1H-indole], in the experiment with adult F. hepatica (setting [2]), the minimal effective concentration was below 10 µg/mL.

On to `Cl.FC(F)(F)c1cc2cc(-c3ccncc3Cl)c(Cl)cc2[nH]1` [Compound 361-0A, 6-chloro-5-(3-chloropyridin-4-yl)-2-(trifluoromethyl)-1H-indole hydrochloride], for which the minimal effective concentration in the experiment on adult F. hepatica (setting [2]) was below 10 µg/mL.

As to `FC(F)(F)c1ccc(-c2ccc3cc(C(F)(F)F)[nH]c3c2)c(Cl)c1` [Compound 334, 6-[2-chloro-4-(trifluoromethyl)phenyl]-2-(trifluoromethyl)-1H-indole], the minimal effective concentration with adult F. hepatica (setting [2]) is below 10 µg/mL.

With `CSc1nc2cc(Cl)c(Oc3cccc(Cl)c3Cl)cc2[nH]1` [TCBZ, triclabendazole, reference compound], the “concentration effective on motility (effective only at)” value in experiment [1] is 10 µM.

For `CCc1cc2cc(-c3ccc(C(F)(F)F)cc3Cl)c(Cl)cc2[nH]1` [Compound 338, 6-chloro-5-[2-chloro-4-(trifluoromethyl)phenyl]-2-ethyl-1H-indole], the minimal effective concentration with adult F. hepatica (setting [2]) was below 10 µg/mL.

Consider `O=C(O)c1ccccc1-c1cc2cc(C(F)(F)F)[nH]c2cc1Cl` [Compound 358, 2-[6-Chloro-2-(trifluoromethyl)-1H-indol-5-yl]benzoic acid], for which, in the experiment on adult F. hepatica (setting [2]), the minimal effective concentration is above 2.5 µg/mL.

Regarding `N#Cc1ccccc1-c1cc2cc(C(F)(F)F)[nH]c2cc1Cl` [Compound 359, 2-[6-Chloro-2-(trifluoromethyl)-1H-indol-5-yl]benzonitrile], the minimal effective concentration with adult F. hepatica (setting [2]) was above 2.5 µg/mL.

In the case of `Cc1cc2cc(-c3ccc(C(F)(F)F)cc3Cl)c(Cl)cc2[nH]1` [Compound 337, 6-chloro-5-[2-chloro-4-(trifluoromethyl)phenyl]-2-methyl-1H-indole], in the experiment with adult F. hepatica (setting [2]), the minimal effective concentration was below 10 µg/mL.

Turning to `CCCc1cc2cc(-c3ccc(C(F)(F)F)cc3Cl)c(Cl)cc2[nH]1` [Compound 339, 6-chloro-5-[2-chloro-4-(trifluoromethyl)phenyl]-2-propyl-1H-indole], the minimal effective concentration in the experiment with adult F. hepatica (setting [2]) was below 10 µg/mL.

Regarding `FC(F)(F)c1ccc(-c2cc3cc(C(F)(F)F)[nH]c3cc2Cl)cc1` [Compound 345, 6-chloro-2-(trifluoromethyl)-5-[4-(trifluoromethyl)phenyl]-1H-indole], the minimal effective concentration with adult F. hepatica (setting [2]) was below 10 µg/mL.

Consider `FC(F)(F)c1ccc(-c2ccc3[nH]c(C(F)(F)F)cc3c2)c(Cl)c1` [Compound 332, 5-[2-chloro-4-(trifluoromethyl)phenyl]-2-(trifluoromethyl)-1H-indole], for which the “inhibition of motility compared with TCBZ and TCBZ-SO” value in experiment [1] is listed as “more potent inhibition of motility than either TCBZ”. Also, the “concentration that completely abolished motility” value in experiment [1] (setting [3]) was 1 µM. Besides, the minimal effective concentration in the experiment with adult F. hepatica (setting [2]) is below 10 µg/mL.

Turning to `N#Cc1ccc(-c2cc3cc(C(F)(F)F)[nH]c3cc2Cl)c(Cl)c1` [Compound 355, 3-chloro-4-[6-chloro-2-(trifluoromethyl)-1H-indol-5-yl]benzonitrile], the minimal effective concentration with adult F. hepatica (72 h) was above 2.5 µg/mL.

On to `FC(F)(F)c1cc2cc(-c3ccccc3Cl)c(Cl)cc2[nH]1` [Compound 346, 6-chloro-5-(2-chlorophenyl)-2-(trifluoromethyl)-1H-indole], for which the minimal effective concentration in the experiment on adult F. hepatica (setting [2]) was below 10 µg/mL.

On to `FC(F)(F)c1cc2cc(-c3ccc(Cl)c(Cl)c3)c(Cl)cc2[nH]1` [Compound 348, 6-chloro-5-(3,4-dichlorophenyl)-2-(trifluoromethyl)-1H-indole], for which the minimal effective concentration in the experiment with adult F. hepatica (setting [2]) was below 10 µg/mL.

For the compound `Fc1ccc(-c2cc3cc(C(F)(F)F)[nH]c3cc2Cl)cc1` [Compound 344, 6-chloro-5-(4-fluorophenyl)-2-(trifluoromethyl)-1H-indole], in the experiment on adult F. hepatica (setting [2]), the minimal effective concentration is below 10 µg/mL.

As to `C[S+]([O-])c1nc2cc(Oc3cccc(Cl)c3Cl)c(Cl)cc2[nH]1` (centres unmarked) [TCBZ-SO, triclabendazole sulfoxide, reference compound], the “concentration effective on motility (effective only at)” value in experiment [1] is 10 µM.

As to `FC(F)(F)c1cc2cc(-c3ccncc3Cl)c(Cl)cc2[nH]1` [Compound 361, 6-chloro-5-(3-chloropyridin-4-yl)-2-(trifluoromethyl)-1H-indole], in the experiment with adult F. hepatica (setting [2]), the minimal effective concentration is below 10 µg/mL.

As for `FC(F)(F)c1cc2cc(-c3cccc(Cl)c3)c(Cl)cc2[nH]1` [Compound 347, 6-chloro-5-(3-chlorophenyl)-2-(trifluoromethyl)-1H-indole], the minimal effective concentration with adult F. hepatica (setting [2]) was at most 10 µg/mL.

In the case of `FC(F)(F)c1cc2cc(-c3ccncc3)c(Cl)cc2[nH]1` [Compound 349, 6-chloro-5-(pyridin-4-yl)-2-(trifluoromethyl)-1H-indole], the minimal effective concentration in the experiment on adult F. hepatica (setting [2]) is at most 10 µg/mL.

As to `FC(F)(F)c1ccc(-c2cc3cc(C(F)(F)F)[nH]c3cc2Cl)c(Cl)c1` [Compound 336, 6-chloro-5-[2-chloro-4-(trifluoromethyl)phenyl]-2-(trifluoromethyl)-1H-indole], the “inhibition of motility compared with TCBZ and TCBZ-SO” value in experiment [1] is on record as “more potent inhibition of motility than either TCBZ”. Besides, in experiment [1] (setting [3]), the “concentration that significantly impacted motility” value was determined as 100 nM. Also, in the experiment with adult F. hepatica (setting [2]), the minimal effective concentration was below 10 µg/mL.

In the case of `CN(C)Cc1ccccc1-c1cc2cc(C(F)(F)F)[nH]c2cc1Cl` [Compound 360, ([2-[6-Chloro-2-(trifluoromethyl)-1H-indol-5-yl]phenyl]methyl)dimethylamine], the minimal effective concentration in the experiment with adult F. hepatica (setting [2]) is above 2.5 µg/mL.
